From patent US20150374646A1, “TREATMENT OF CANCER AND OTHER CONDITIONS USING A TRANSCRIPTION FACTOR MODULATOR” (C & C BIOPHARMA, LLC, priority 2013, published 2015)

Assays:
HL60 = assay: Leukemia cell growth inhibition, CellTiter-Glo (Example 1); format: cell-based, human
Description: (§1) Various human leukemia cells were grown to the logarithmic growth phase and seeded into 24-well plates. […] Treated cells were further incubated for 72 hours and then were examined for cell proliferation. Cell proliferation was determined using the CellTiter-Glo Luminescence Cell Viability assay (Promega Corporation, Madison, Wis.) according to the manufacturer's protocol. The calculated inhibition rate was determined with the following formula: Inhibition rate (%)=(1−Luminescence of experimental group/Luminescence of control group)×100. IC50 is the calculated concentration of a compound needed to inhibit half of the maximum cell growth (equivalent to cell growth in control group) based on the corresponding dose-response curve under the described experimental conditions.

K-562 = assay: as above; format: cell-based; conditions: Homo sapiens, K562; K-562, CML; 72 hours
Description: as §1

K562R = assay: as above; format: cell-based; conditions: Homo sapiens, K-562R, CML (Gleevec resistant), 72 hours
Description: as §1

U266 = assay: as above; format: cell-based; conditions: Homo sapiens, U-266; U266, Multiple myeloma; 72 hours
Description: as §1

RPMI-8226 = assay: as above; format: cell-based; conditions: Homo sapiens; RPMI-8226, Multiple myeloma; 72 hours
Description: as §1

Jurkat = assay: as above; format: cell-based; conditions: Homo sapiens, ALL (T-cell), 72 hours
Description: as §1

RS4;11 = assay: as above; format: cell-based; conditions: Homo sapiens; RS4;11, ALL (B-cell); 72 hours
Description: as §1

SEM cells = assay: as above; format: cell-based; conditions: Homo sapiens, ALL (B-cell), 72 hours
Description: as §1

BaF3 BCR-ABL = assay: as above; format: cell-based; conditions: Mouse cell line with BCR-ABL, 72 hours
Description: as §1

BaF3 BCR-ABL T315I = assay: as above; format: cell-based; conditions: Mouse cell line with BCR-ABL with T315I point mutation (Gleevec resistant), 72 hours
Description: as §1

CCRF-CEM = assay: as above; format: cell-based; conditions: Homo sapiens, ALL (T-cell), 72 hours
Description: as §1

REH = assay: as above; format: cell-based, human; conditions: REH cells, 4 μM
Description: as §1

Nalm-6 cells = assay: Survival of BALB/c nude mice with Nalm-6 acute B cell lymphoblastic leukemia (Example 2); format: in vivo
Description: BALB/c nu/nu nude mice were 4 to 5 weeks old with an average weight of 22.4±1.03 grams. The mice were raised under specific pathogen-free (SPF) conditions and had access to food and water freely. Cyclophosphamide at about 130 mg/kg per day was administrated with intraperitoneal (IP) injection for 2 days. Twenty-four hours later, a suspension of 3.5×10^6 or 5×10^6 Nalm-6 cells (0.2 mL) were injected through tail vein of each BALB/c nude mouse. Five days later, the mice were randomly divided into a YT30 treated group (n=5) and a solvent control group (n=5).
Mice in the YT30 treated group were intraperitoneally injected with 200 μL of YT30 (50 mg/kg) once a day, for 5 days a week, and for 3 or 4 weeks. The mice in the solvent control group were intraperitoneally injected with the same volume of solvent (20% DMSO, 80% of 20% w/v (2-hydroxypropyl)-β-cyclodextrin in PBS), and were on the same treatment schedule as the YT30 treated group. The body weights of the mice were recorded prior to the start of the treatment and at least twice a week thereafter. The dosages were adjusted according to the body weight to conform to the 50 mg/kg/day treatment plan. Each mouse of every group was also monitored daily for any other symptoms of side effects including change in behavior, activity or posture, areas of redness and swelling, and food and water withdrawal. […] Dates of death were recorded.

K562 cells = assay: Subcutaneous K562 (CML) tumor growth in SCID mice (Example 6); format: in vivo; conditions: for Average body weight, End point / Average body weight, Initial / Tumor size / Tumor weight: x ± s; for Average body weight, Initial: initial (before treatment)
Description: Male Severe Combined Immunodeficiency (SCID) mice that were 4-6 weeks old were used in the experiment. The mice were fed under specific pathogen free (SPF) conditions. Food and water were available to the mice at will. A suspension of 8×10^6 chronic myelogenous leukemia K562 cells (0.2 mL) was inoculated subcutaneously into the right back of the SCID mice.
The general conditions of the mice and the growth of the transplanted tumor were monitored. […] The control group received an intraperitoneal injection (IP) of 0.2 mL solvent (20% DMSO, 80% of 20% w/v (2-hydroxypropyl)-β-cyclodextrin made in PBS). […] The YT30 treated groups received either intraperitoneal injection of 50 mg/kg/day of YT30 (0.2 mL in volume) suspended in solvent (20% DMSO, 80% of 20% w/v (2-hydroxypropyl)-β-cyclodextrin made in PBS) or oral gavage of 90 mg/kg/day YT30 in solvent (Cremophor RH40:TW80:PEG400 (2:1:1)). Frequency of the administration was once per day and the experiment lasted 16 days after initiation of the treatment.
The body weights of the mice were recorded prior to the start of treatment and twice every week thereafter. Each mouse of every group was monitored daily for any other symptoms of side effects including change in behavior, activity or posture, areas of redness and swelling, and food and water withdrawal. Caliper measurements of the longest perpendicular tumor diameters were performed every 2 days to estimate the tumor volume; the following formula: 4π/3×(width/2)^2×(length/2) was used to calculate the three-dimensional volume of an ellipse. The tumor inhibition rate was calculated according to tumor volume: Tumor inhibition rate by size (%)=(Tumor volume of the control group−Tumor volume of the treated group)/Tumor volume of the control group×100. The SCID mice were euthanized 2 hours after the final injection and the subcutaneous tumor nodules were taken out intact and weighed. The tumor inhibition rate was calculated again according to tumor weight: Tumor inhibition rate by weight (%)=(Tumor weight of the control group−Tumor weight of the treated group)/Tumor weight of the control group×100.

[1] = YT30 50 mg/kg i.p. × 16 days, SCID mice, K562 tumor
[2] = YT30 90 mg/kg p.o. × 16 days, SCID mice, K562 tumor

**Q.** `Nc1ccccc1NC(=O)CCCCCC(=O)Nc1cccc(Br)c1` [YT30] was tested. Which “Growth inhibition (FIG. 1)” value (HL60; HL60 cells, 4 μM) did it give?
**A.** significantly inhibit cell growth

**Q.** And the IC50 (HL60; Homo sapiens, HL-60, HL60, AML (subtype APL), 72 hours)?
**A.** 1040 nM

**Q.** And the IC50 (K-562)?
**A.** 1820 nM

**Q.** What about the IC50 (K562R) of the same compound?
**A.** 3210 nM

**Q.** And the IC50 (U266)?
**A.** 8290 nM

**Q.** What about the IC50 (RPMI-8226) of the same compound?
**A.** 2000 nM

**Q.** What about the IC50 (Jurkat) of the same compound?
**A.** 910 nM

**Q.** What about the IC50 (RS4;11) of the same compound?
**A.** 1050 nM

**Q.** What about the IC50 (SEM cells) of the same compound?
**A.** 1150 nM

**Q.** What about the IC50 (BaF3 BCR-ABL) of the same compound?
**A.** 3400 nM

**Q.** And the IC50 (BaF3 BCR-ABL T315I)?
**A.** 1110 nM

**Q.** What about the IC50 (CCRF-CEM) of the same compound?
**A.** 1530 nM

**Q.** And the “Growth inhibition (FIG. 1)” value (REH)?
**A.** significantly inhibit cell growth

**Q.** And the “Average life span after inoculation for IP 50 mg/KG group” value (Nalm-6 cells; IP 50 mg/kg qd for 5 days/week, 3 weeks, 5 × 10^6 Nalm-6 cells, 50 mg/kg)?
**A.** 48.8 ± 9.7 days

**Q.** And the “Mice that appeared to be cured” value (Nalm-6 cells; IP 50 mg/kg, 4 weeks, 3.5 × 10^6 Nalm-6 cells, euthanized 341 days after treatment start)?
**A.** three out of five

**Q.** And the Body weight change (K562 cells; [1])?
**A.** −8.67%

**Q.** And the “Tumor growth inhibition by size” value (K562 cells; [1])?
**A.** 44.07%

**Q.** And the “Tumor growth inhibition by weight” value (K562 cells; [1])?
**A.** 40.76%

**Q.** And the “Average body weight, End point” value (K562 cells; [1])?
**A.** 16.75 ± 1.57 g

**Q.** And the “Average body weight, Initial” value (K562 cells; [1])?
**A.** 18.34 ± 0.73 g

**Q.** And the Tumor size (K562 cells; [1])?
**A.** 1741.11 ± 1218.90 mm^3

**Q.** What about the Tumor weight (K562 cells; [1]) of the same compound?
**A.** 2.16 ± 1.86 g

**Q.** What about the Body weight change (K562 cells; [2]) of the same compound?
**A.** −5.30%

**Q.** What about the “Tumor growth inhibition by size” value (K562 cells; [2]) of the same compound?
**A.** 41.77%

**Q.** What about the “Tumor growth inhibition by weight” value (K562 cells; [2]) of the same compound?
**A.** 33.17%

**Q.** And the “Average body weight, End point” value (K562 cells; [2])?
**A.** 17.70 ± 2.03 g

**Q.** And the “Average body weight, Initial” value (K562 cells; [2])?
**A.** 18.69 ± 1.36 g

**Q.** And the Tumor size (K562 cells; [2])?
**A.** 1812.71 ± 581.68 mm^3

**Q.** What about the Tumor weight (K562 cells; [2]) of the same compound?
**A.** 2.44 ± 0.92 g

**Q.** And the “Tumor growth inhibition by weight” value (K562 cells; intraperitoneal 50 mg/kg/day, 16 days of treatment)?
**A.** 40.76%

**Q.** And the “Tumor growth inhibition by weight” value (K562 cells; oral gavage 90 mg/kg/day, 16 days of treatment)?
**A.** 33.17%
